The source of these data is PubChem BioAssay AID1645862 (Buhrlage Lab, Dana-Farber Cancer Institute and Novartis …, 2021).

SMILES strings stand for the structures. pIC50: −log10 of the molar value. Active and inactive are the calls of the source. No rule for the calls is given here.

The target in this test is Ubiquitin carboxyl-terminal hydrolase 8 (Homo sapiens) (UniProt P40818). Nature of the test: Ubiquitin-specific protease 8 inhibitors, concentration-effect, biochemical, validation of initial actives (AID 1645862).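 Also: potency reflects inhibition of USP8 cleavage of a ubiquitin rhodamine substrate.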 Particulars: recombinant USP8 deubiquitinase activity assay.
Ubiquitin carboxyl-terminal hydrolase 8 (Homo sapiens), sequence (P40818 whole entry, looked up): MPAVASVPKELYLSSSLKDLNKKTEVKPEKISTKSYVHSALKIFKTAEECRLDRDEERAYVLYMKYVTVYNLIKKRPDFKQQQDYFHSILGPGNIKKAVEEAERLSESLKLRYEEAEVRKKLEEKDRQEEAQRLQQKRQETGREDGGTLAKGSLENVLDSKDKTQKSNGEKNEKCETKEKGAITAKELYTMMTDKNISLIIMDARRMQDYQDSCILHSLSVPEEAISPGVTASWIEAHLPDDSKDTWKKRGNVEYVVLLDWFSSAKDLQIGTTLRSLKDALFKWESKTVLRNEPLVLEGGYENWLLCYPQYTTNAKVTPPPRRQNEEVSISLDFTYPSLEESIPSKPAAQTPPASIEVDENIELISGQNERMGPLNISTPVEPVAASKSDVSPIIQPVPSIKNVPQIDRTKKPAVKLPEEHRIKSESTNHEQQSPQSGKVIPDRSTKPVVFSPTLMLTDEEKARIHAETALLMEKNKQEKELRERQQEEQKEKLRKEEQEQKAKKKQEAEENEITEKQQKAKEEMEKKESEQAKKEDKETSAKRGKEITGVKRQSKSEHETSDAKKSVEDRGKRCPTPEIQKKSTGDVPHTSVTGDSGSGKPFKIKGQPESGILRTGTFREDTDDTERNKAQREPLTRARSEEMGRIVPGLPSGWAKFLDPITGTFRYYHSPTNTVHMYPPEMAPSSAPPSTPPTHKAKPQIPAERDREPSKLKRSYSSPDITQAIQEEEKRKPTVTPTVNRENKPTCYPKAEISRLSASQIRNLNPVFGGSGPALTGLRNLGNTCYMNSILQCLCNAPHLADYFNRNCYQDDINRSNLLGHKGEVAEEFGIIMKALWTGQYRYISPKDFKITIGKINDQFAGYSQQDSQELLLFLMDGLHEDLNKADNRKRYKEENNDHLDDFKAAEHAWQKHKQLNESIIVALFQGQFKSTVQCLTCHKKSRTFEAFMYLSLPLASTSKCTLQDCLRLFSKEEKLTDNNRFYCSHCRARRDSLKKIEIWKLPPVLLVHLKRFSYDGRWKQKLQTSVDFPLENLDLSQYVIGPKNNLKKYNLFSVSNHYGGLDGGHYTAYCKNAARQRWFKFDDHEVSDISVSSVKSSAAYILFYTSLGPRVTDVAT

On to `Cc1ccc(N2CC(C(=O)Nc3cccc(-c4noc(C)n4)c3)CC2=O)cc1` (stereo not given), for which the IC50 is > 40 µM (inactive).
As to `N#Cc1c(-c2ccc(Cl)cc2)cc(-c2cccc(Br)c2)[nH]c1=O`, the pIC50 was 4.59.
For `Nc1ccc2oc(-c3cccc(-c4nc5cc(N)ccc5o4)n3)nc2c1`, the pIC50 is 4.48.
Consider `Cc1ccc(NC(=O)c2cc(-c3ccccn3)nc3c(Cl)cccc23)nc1`, for which the IC50 is > 40 µM (inactive).
In the case of `O=c1[nH]c2ccc(S(=O)(=O)Nc3ccc(O)c4ccccc34)cc2[nH]1`, the pIC50 was 4.95.
Take `Cc1ccc(CNC(=O)Cn2c(=O)n(CCCC(=O)NCc3ccc(F)cc3)c(=O)c3ccccc32)cc1`: the IC50 is > 40 µM (inactive).
Still for that read-out and setting: in the case of `Cc1noc(-c2cc(=O)n(CC(=O)Nc3ccccc3Cl)c3ccccc23)n1` it was > 40 µM (inactive).
The same measure, in the same setting: the result for `CCOc1ccc(NC(=O)Cn2c(=O)n(CCC(=O)NCc3ccco3)c(=O)c3ccccc32)cc1` reads > 40 µM (inactive); that for `COc1ccc2nc(-c3ccc(NC(=O)c4cccc(OC)c4OC)cc3)cn2n1`, > 40 µM (inactive); that for `COc1cccc(C(=O)Nc2nc(-c3nnn(-c4ccc(C)c(F)c4)c3C)ns2)c1`, > 40 µM (inactive).
As to `COc1cc(O)cc2c1C(=O)OC(C)CCCCCCC2` (stereo not given), the IC50 was > 40 µM (inactive).
On the same count and under the same terms, in the case of `CC(=O)Nc1ccc(C(=O)/C=C2\NCCc3cc4c(cc32)OCCCO4)cc1` it was > 40 µM (inactive); in that of `O=C(COc1ccc(Cl)cc1Cl)Nc1ccccc1-c1nc2ccccc2[nH]1`, > 40 µM (inactive).
As for `CS(=O)(=O)NC1CCCN(C(=O)Nc2cccc3ccccc23)C1` (stereo not given), the IC50 was > 40 µM (inactive).
For the compound `Cc1ccc(NC(=O)c2cc(-c3cccnc3)n[nH]2)cc1F`, the IC50 is > 40 µM (inactive).
Same read-out and setting: in the case of `O=C(Cn1c(COc2ccccc2)nc2ccccc21)Nc1cc(Cl)ccc1Cl` it was > 40 µM (inactive); in that of `CC(NC(=O)c1ccccc1)c1nc2ccccc2n1CC(=O)Nc1ccc(F)cc1` (stereo not given), > 40 µM (inactive); in that of `O=S(=O)(Nc1cccc(O)c1)c1ccc2oc3ccc(S(=O)(=O)Nc4cccc(O)c4)cc3c2c1`, > 40 µM (inactive).
Same read-out and setting: the result for `CC(C)(C)C(=O)Nc1ccc(C(=O)Nc2cccc(-c3nnc(-c4ccccc4)o3)c2)cc1` reads > 40 µM (inactive).
The same measure, in the same setting: in the case of `CC(=O)c1cccc(NC(=O)COC(=O)c2sc3cc(F)ccc3c2Cl)c1` it was > 40 µM (inactive).
Turning to `COc1ccc(-c2nc(SCC(=O)Oc3c(C)cccc3C)n3[nH]c(=O)cc3n2)cc1`, the pIC50 is 4.75.
As to `O=C(COC(=O)c1ccc(NS(=O)(=O)c2ccc(F)c(F)c2)cc1)Nc1ccc(OCc2ccccc2)cc1`, the IC50 is > 40 µM (inactive).
The same measure, in the same setting: the result for `CCN(Cc1ccccc1)C(=O)Cn1ccc2ccn(C)c2c1=O` reads > 40 µM (inactive).
The same measure, in the same setting: the result for `Cc1ccc2c(c1)c(=O)c(C(=O)c1ccccc1)cn2CC(=O)Nc1ccc2c(c1)OCO2` reads > 40 µM (inactive); that for `Cc1ccc(S(=O)(=O)NCc2ccc(C(=O)NCCc3ccc(S(N)(=O)=O)cc3)cc2)cc1`, > 40 µM (inactive); that for `N#C/C(=C\c1ccccc1F)c1nnc(N)s1`, > 40 µM (inactive).
On the same count and under the same terms, the result for `CN(C)c1ccc(CNC(=O)c2nnc(C(=O)Nc3ccccc3)s2)cc1` reads > 40 µM (inactive).
For the compound `O=C1CC(C(=O)Nc2ccc3c(c2)OCO3)n2nc(SCc3ccccc3)nc2N1` (stereo not given), the IC50 is > 40 µM (inactive).
With `COc1cc(C)cc2c1C(=O)c1c(cc(O)c(Cl)c1O)C2=O`, the pIC50 was 5.48.
Regarding `O=C(C1=CSCCO1)N1CCc2ccccc2C1`, the IC50 is > 40 µM (inactive).
Same read-out and setting: the result for `O=C(CC1C(=O)Nc2nc3ccccc3n21)Nc1cccc2ccccc12` (stereo not given) reads > 40 µM (inactive).
Still for that read-out and setting: in the case of `Cc1ccc(-c2nnc3ccc(SCC(=O)N4CCCc5ccccc54)nn23)cc1` it was > 40 µM (inactive); in that of `CC(C)(C)c1ccc(C2CC(=O)C3=C(C2)Nc2ccccc2N(C(=O)CCC(=O)O)C3c2cccc([N+](=O)[O-])c2)cc1` (stereo not given), > 40 µM (inactive).
With `Cn1c(=O)[nH]c2nncnc2c1=O`, the pIC50 was 4.68.
For `COc1cccc(Cn2cnc3c(NS(=O)(=O)c4ccc(Cl)cc4)c(C)c(C)cc32)c1`, the IC50 is > 40 µM (inactive).
Still for that read-out and setting: in the case of `N=C1/C(=C/c2cn(Cc3ccc(F)cc3)c3ccccc23)C(=O)N=C2SC(Cc3ccccc3)=NN12` it was > 40 µM (inactive); in that of `Cn1c(=O)c(-c2ccc(C(=O)NCc3cccc(Cl)c3)cc2)nc2cccnc21`, > 40 µM (inactive); in that of `COc1ccc(OC)c(NC(=O)c2cc(Cl)ccc2OC)c1`, > 40 µM (inactive).
For `COc1c2nc3ccccc3oc-2cc(=O)c1OC`, the IC50 was > 40 µM (inactive).
Turning to `CCOC(=O)C1CCN(Cc2cc(=O)oc3cc(O)c(O)cc23)CC1`, the pIC50 was 5.89.
Take `O=C(CCc1ccc(S(=O)(=O)N2CCOCC2)cc1)OCC(=O)c1ccc(-c2ccccc2)cc1`: the IC50 is > 40 µM (inactive).
The same measure, in the same setting: in the case of `COc1cc2c(oc(=O)c3cc(C)cc(OC)c32)c2c([C@@H]3OC(C)[C@@H](O)[C@@](C)(O)C3O)ccc(O)c12` (stereo not given in full) it was > 40 µM (inactive).
As to `COc1cc(OC)c2c(c1)C(=O)C1=C(COC(C)(O)C1)C2=O` (stereo not given), the IC50 was > 40 µM (inactive).
Still for that read-out and setting: in the case of `CCOc1ccc(NC(=O)Cn2c(=O)n(CCC(=O)NCc3ccccc3OC)c(=O)c3ccccc32)cc1` it was > 40 µM (inactive); in that of `CSc1nc(N)c2c(n1)N[C@H]1OC[C@H](O)[C@H](O)[C@H]1N2`, > 40 µM (inactive).
For the compound `CCc1ccc(S(=O)(=O)c2cn(CC(=O)Nc3ccccc3)c3ccccc3c2=O)cc1`, the IC50 was > 40 µM (inactive).
The same measure, in the same setting: in the case of `O=c1[nH]c(C2CCN(S(=O)(=O)c3ccc(S(=O)(=O)NC4CC4)cc3)CC2)nc2c1nnn2Cc1c(Cl)cccc1Cl` it was > 40 µM (inactive).
The same measure, in the same setting: the result for `O=C(Nc1ccncc1)c1cn(Cc2ccccc2)cc2c(=O)n(-c3ccccc3)nc1-2` reads > 40 µM (inactive).
Consider `O=C(Nc1cccc(Br)c1)c1cc(-c2cccnc2)n[nH]1`, for which the pIC50 was 4.47.
`Cc1ccc(C(=O)c2cn(CC(=O)Nc3ccc(F)c(F)c3)c3ccc(F)cc3c2=O)cc1`: the IC50 is > 40 µM (inactive).
As to `COc1ccc(Cl)cc1NC(=O)c1cc(-c2ccccn2)n[nH]1`, the pIC50 was 4.98.
Regarding `O=C(NC1CCCCC1)C(c1ccc(F)cc1)N(C(=O)C1COc2ccccc2O1)c1ccc2c(c1)OCO2` (stereo not given), the IC50 is > 40 µM (inactive).
As to `COc1cc(Cn2cnc3c([nH]c4ccc(Br)cc43)c2=O)cc(OC)c1`, the IC50 is > 40 µM (inactive).
The same measure, in the same setting: the result for `Oc1cccc2c(-c3ccc(O)c4c(O)cccc34)ccc(O)c12` reads > 40 µM (inactive).
On the same count and under the same terms, the result for `Cc1ccc(NC(=O)c2nnn(CC(=O)Nc3cccc(C)c3C)c2N)cc1C` reads > 40 µM (inactive); that for `COc1ccc(NS(=O)(=O)c2cc(NC(=O)CC(=O)c3ccc([N+](=O)[O-])cc3)ccc2Cl)cc1`, > 40 µM (inactive); that for `Cc1nc2c(c(C)c1CCC(=O)Nc1ccccc1F)c(=O)n(C)c(=O)n2C`, > 40 µM (inactive).
`Cc1cc(C(F)(F)F)n2nc(C3CCN(C(=O)c4cnn(C)c4C)C3)cc2n1` (stereo not given): the pIC50 was 4.62.
In the case of `COc1cccc2cc(C(=O)Nc3nc(-c4ccncc4)cs3)oc12`, the pIC50 is 4.70.
Turning to `Cc1ccc(CNCc2cc3c(-c4ccc(F)cc4)nn(-c4ccccc4)c3[nH]c2=O)cc1`, the IC50 is > 40 µM (inactive).
The same measure, in the same setting: the result for `O=C(/C=C/c1ccc2c(c1)OCO2)Nc1nc2n(n1)C(c1ccccc1)CC(=O)N2` (stereo not given) reads > 40 µM (inactive).
Consider `O=c1c2ccccc2oc2nc(-c3cccs3)n(-c3ccccc3)c(=O)c12`, for which the negative-log IC50 (pIC50) was 5.64.
On to `O=C(NCCc1cccnc1)c1ccn(-c2ccc3ccccn23)n1`, for which the IC50 is > 40 µM (inactive).
On to `O=C(c1ccncc1)N1CCN(CC2CC=CCC2)CC1` (stereo not given), for which the IC50 is > 40 µM (inactive).
With `O=C(CSc1nc(=O)n(Cc2ccncc2)c2c1CCC2)NCCc1ccccc1`, the IC50 is > 40 µM (inactive).
As to `O=C(Nc1ccccc1-c1nc(-c2ccccn2)no1)c1cc(Cl)ccc1Cl`, the IC50 is > 40 µM (inactive).
For `COc1ccc(-c2n[nH]n3c2nc(=O)c2ccc(C(=O)NCc4ccco4)cc23)cc1`, the IC50 was > 40 µM (inactive).
With `CCCCCCCCCC(CCCCCCCCCC(=O)O)O[C@H]1O[C@@H](COC(C)=O)[C@H](O)[C@@H](O)[C@H]1OC(=O)CC(=O)O` (stereo not given in full), the IC50 is > 40 µM (inactive).
For the compound `CN(C)[C@@H]1C(=O)C(C(N)=O)=C(O)[C@@]2(O)C(=O)C3=C(O)c4c(O)cccc4[C@@](C)(O)C3[C@H](O)[C@@H]12` (stereo not given in full), the pIC50 was 6.15.
As for `CCOC(=O)c1cc2c(ccn2-c2ccc(F)cc2)n1CC(=O)Nc1ccc2c(c1)OCCO2`, the IC50 is > 40 µM (inactive).
On the same count and under the same terms, in the case of `O=C(CCSc1nnnn1-c1ccccc1)Nc1cc(C(F)(F)F)ccc1Cl` it was > 40 µM (inactive); in that of `COc1ccccc1NC(=O)c1nc(-c2cn(-c3cccc(F)c3)nn2)no1`, > 40 µM (inactive).
Regarding `COc1cc(OC)cc(-c2nc(-c3cn(-c4cccc(F)c4)nn3)no2)c1`, the pIC50 was 4.48.
The same measure, in the same setting: in the case of `COc1ccc(OC)c(-c2cn3ccn(-c4ccc(F)c(Cl)c4)c(=O)c3n2)c1` it was 4.69.
For the compound `COc1cc2c(c(OCC(=O)Nc3ccc4c(c3)OCCO4)c1)C(=O)O[C@@H](C)CCCC(=O)CCCCC2`, the IC50 was > 40 µM (inactive).
Regarding `Cc1ccc2[nH]c(=O)c(-c3nc4ccc(C)cn4c3NCc3ccc(F)cc3)cc2c1`, the IC50 is > 40 µM (inactive).
Regarding `O=C(NCc1ccco1)c1ccc(Cn2c(=O)c3sccc3n(Cc3cc(=O)n4ccccc4n3)c2=O)cc1`, the IC50 is > 40 µM (inactive).
On the same count and under the same terms, in the case of `Fc1cccc(Nc2nc(-c3ccccn3)nc3ccccc23)c1` it was > 40 µM (inactive); in that of `CSc1nc(NCc2ccccc2)c2sc3nc(N4CCOCC4)c4c(c3c2n1)CC(C)(C)OC4`, > 40 µM (inactive).
For the compound `COc1ccccc1NC(=O)Cn1cc(C(=O)c2ccc(C)cc2)c(=O)c2cc(Cl)ccc21`, the IC50 was > 40 µM (inactive).

What is called IC50 is the point on the concentration scale where inhibition reaches its midpoint. By pIC50 is commonly meant the negative decadic logarithm of the IC50, by convention in mol/L.
